Numbers after ± are expanded uncertainties.
Details: Crystal 1; Chromatography

| Normal melting temperature | SMILES |
| --- | --- |
| 206.00 °C | O=C(O)[C@H](O)[C@@H](O)C(=O)O (relative stereo) [(R*,R*)-2,3-dihydroxybutanedioic acid] |
| 170.20 ± 1 °C | O=C(O)[C@H](O)[C@@H](O)C(=O)O [(2R,3R)-2,3-dihydroxybutanedioic acid] |
